The kinase profiling compilation of Christmann-Franck et al. (2016)

Assays:
Experiment in all cases: KINOMEscan competition binding
Conditions in all cases: compound 10.0 µM
[1] = target: ADCK4 (human) (UniProt Q96D53)
[2] = target: BMP2K (human) (UniProt Q9NSY1)
[3] = target: BMPR2 (human) (UniProt Q13873)
[4] = target: BRAF (human) (UniProt P15056)
[5] = target: CDC42BPB (human) (UniProt Q9Y5S2)
[6] = target: CDK3 (human) (UniProt Q00526)
[7] = target: CDK9 (human) (UniProt P50750)
[8] = target: CDKL2 (human) (UniProt Q92772)
[9] = target: EPHB4 (human) (UniProt P54760)
[10] = target: EPHB6 (human) (UniProt O15197)
[11] = target: FLT3 (human) (UniProt P36888)
[12] = test system: FLT3 (human), P36888 [D835H]
[13] = target: GRK7 (human) (UniProt Q8WTQ7)
[14] = target: HUNK (human) (UniProt P57058)
[15] = target: INSR (human) (UniProt P06213)
[16] = test system: KIT (human), P10721 [V559D/T670I]
[17] = target: MAP2K3 (human) (UniProt P46734)
[18] = target: MAP3K2 (human) (UniProt Q9Y2U5)
[19] = target: MAP3K7 (human) (UniProt O43318)
[20] = target: MARK3 (human) (UniProt P27448)
[21] = target: MELK (human) (UniProt Q14680)
[22] = test system: MET (human), P08581 [M1250T]
[23] = target: MYO3B (human) (UniProt Q8WXR4)
[24] = target: NEK7 (human) (UniProt Q8TDX7)
[25] = target: NTRK2 (human) (UniProt Q16620)
[26] = target: PAK2 (human) (UniProt Q13177)
[27] = target: PIK3CA (human) (UniProt P42336)
[28] = target: PIK3CB (human) (UniProt P42338)
[29] = target: PIM2 (human) (UniProt Q9P1W9)
[30] = target: PKN1 (human) (UniProt Q16512)
[31] = target: PKN2 (human) (UniProt Q16513)
[32] = target: PRKCQ (human) (UniProt Q04759)
[33] = target: PRKG1 (human) (UniProt Q13976)
[34] = target: RET (human) (UniProt P07949)
[35] = test system: RET (human), P07949 [M918T]
[36] = target: RIOK3 (human) (UniProt O14730)
[37] = target: SIK1 (human) (UniProt P57059)
[38] = target: SRC (human) (UniProt P12931)
[39] = target: STK35 (human) (UniProt Q8TDR2)
[40] = target: TYK2 JH1 catalytic (human) (UniProt P29597)
[41] = target: ULK1 (human) (UniProt O75385)
[42] = target: ZAP70 (human) (UniProt P43403)

GRK7 (human), sequence (Q8WTQ7 whole entry, looked up): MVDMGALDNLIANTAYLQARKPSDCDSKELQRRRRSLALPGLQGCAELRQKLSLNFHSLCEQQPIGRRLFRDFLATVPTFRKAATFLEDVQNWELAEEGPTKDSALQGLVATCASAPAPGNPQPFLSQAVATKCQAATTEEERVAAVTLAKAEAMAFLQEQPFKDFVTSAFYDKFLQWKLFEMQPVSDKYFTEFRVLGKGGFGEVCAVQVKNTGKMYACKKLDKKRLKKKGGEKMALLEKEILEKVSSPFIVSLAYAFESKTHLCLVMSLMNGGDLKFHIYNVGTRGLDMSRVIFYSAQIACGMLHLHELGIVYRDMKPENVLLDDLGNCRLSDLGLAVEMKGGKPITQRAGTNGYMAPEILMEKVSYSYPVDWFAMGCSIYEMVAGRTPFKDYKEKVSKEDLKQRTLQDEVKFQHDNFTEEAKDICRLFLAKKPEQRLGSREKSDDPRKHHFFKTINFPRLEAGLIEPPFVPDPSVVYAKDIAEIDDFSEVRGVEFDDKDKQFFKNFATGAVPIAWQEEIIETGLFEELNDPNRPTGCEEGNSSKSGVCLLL
RET (human), sequence (P07949 whole entry, looked up): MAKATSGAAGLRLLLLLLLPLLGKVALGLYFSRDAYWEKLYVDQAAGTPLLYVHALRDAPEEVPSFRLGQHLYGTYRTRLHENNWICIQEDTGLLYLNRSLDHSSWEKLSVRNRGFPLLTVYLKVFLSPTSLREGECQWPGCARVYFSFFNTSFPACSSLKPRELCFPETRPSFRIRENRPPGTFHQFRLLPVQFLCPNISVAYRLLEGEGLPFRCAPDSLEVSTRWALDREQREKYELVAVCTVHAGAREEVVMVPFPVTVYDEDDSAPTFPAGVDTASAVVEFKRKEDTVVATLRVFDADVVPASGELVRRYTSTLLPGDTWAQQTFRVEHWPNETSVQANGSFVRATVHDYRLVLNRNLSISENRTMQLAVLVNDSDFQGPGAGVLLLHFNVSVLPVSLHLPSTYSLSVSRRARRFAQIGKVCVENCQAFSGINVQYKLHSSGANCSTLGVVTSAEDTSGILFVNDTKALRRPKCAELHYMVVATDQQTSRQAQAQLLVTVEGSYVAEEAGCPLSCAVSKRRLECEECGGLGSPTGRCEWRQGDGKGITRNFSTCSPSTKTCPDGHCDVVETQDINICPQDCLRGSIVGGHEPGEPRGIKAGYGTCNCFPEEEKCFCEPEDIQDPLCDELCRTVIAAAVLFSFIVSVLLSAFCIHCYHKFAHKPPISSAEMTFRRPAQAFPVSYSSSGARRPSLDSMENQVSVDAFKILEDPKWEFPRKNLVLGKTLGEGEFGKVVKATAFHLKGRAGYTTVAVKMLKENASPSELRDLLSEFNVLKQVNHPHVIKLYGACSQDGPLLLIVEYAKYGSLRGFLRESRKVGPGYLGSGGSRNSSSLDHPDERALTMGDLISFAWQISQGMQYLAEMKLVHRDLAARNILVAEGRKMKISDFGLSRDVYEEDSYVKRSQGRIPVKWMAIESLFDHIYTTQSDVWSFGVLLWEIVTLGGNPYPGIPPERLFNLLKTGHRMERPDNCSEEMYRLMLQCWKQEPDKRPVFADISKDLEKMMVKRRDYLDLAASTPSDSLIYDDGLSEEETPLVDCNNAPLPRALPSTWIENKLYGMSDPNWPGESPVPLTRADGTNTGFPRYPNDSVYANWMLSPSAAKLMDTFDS
PIK3CA (human), sequence (P42336 whole entry, looked up): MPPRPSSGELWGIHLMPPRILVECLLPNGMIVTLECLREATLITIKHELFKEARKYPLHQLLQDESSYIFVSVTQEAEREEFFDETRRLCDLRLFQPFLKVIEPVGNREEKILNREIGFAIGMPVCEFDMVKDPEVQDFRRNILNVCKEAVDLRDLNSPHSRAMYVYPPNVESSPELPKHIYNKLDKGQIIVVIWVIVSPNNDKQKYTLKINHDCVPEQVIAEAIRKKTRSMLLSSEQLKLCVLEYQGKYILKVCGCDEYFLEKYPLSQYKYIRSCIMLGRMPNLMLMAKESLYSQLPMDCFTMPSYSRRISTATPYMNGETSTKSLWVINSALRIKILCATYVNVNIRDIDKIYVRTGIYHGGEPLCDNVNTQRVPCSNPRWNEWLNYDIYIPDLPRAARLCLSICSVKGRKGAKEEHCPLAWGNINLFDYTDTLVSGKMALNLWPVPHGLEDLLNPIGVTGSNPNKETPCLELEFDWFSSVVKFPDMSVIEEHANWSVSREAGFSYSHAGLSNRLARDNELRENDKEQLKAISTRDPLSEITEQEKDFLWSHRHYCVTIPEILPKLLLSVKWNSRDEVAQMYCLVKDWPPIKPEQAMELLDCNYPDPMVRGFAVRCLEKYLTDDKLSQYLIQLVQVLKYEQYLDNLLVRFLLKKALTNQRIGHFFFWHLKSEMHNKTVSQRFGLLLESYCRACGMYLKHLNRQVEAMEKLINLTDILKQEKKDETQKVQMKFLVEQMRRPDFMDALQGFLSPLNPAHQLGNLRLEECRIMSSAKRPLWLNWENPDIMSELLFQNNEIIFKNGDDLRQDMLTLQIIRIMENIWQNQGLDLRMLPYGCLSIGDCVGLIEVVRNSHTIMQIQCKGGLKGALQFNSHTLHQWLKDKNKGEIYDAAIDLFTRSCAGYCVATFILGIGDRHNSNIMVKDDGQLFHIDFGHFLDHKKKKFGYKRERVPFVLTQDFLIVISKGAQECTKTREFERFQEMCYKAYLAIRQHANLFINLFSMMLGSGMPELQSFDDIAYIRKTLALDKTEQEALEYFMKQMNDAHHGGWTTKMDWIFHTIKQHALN
MARK3 (human), sequence (P27448 whole entry, looked up): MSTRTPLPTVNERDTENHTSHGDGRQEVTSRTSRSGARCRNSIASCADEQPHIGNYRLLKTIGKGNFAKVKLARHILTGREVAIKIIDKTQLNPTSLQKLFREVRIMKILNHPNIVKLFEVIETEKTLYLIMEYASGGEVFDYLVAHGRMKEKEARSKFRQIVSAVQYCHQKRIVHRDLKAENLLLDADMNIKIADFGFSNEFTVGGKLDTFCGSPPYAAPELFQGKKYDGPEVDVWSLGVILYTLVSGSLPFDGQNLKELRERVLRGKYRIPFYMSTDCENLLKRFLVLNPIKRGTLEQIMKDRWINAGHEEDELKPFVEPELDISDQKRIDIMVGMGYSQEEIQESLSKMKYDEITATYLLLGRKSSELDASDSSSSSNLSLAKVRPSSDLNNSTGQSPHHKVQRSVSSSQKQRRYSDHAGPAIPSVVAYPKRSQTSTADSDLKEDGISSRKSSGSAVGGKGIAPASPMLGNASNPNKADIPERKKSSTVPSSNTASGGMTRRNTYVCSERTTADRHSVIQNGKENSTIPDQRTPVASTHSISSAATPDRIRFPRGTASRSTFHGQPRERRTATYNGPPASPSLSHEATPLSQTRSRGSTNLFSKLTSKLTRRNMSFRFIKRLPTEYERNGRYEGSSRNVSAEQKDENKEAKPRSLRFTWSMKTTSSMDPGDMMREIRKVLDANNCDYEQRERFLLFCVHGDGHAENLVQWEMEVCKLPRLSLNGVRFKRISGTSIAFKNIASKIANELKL
RET (human), P07949 [M918T], sequence (P07949 whole entry M918T, looked up): as the sequence (P07949 whole entry, looked up) above, with M918T counted along it
BMP2K (human), sequence (Q9NSY1 whole entry, looked up): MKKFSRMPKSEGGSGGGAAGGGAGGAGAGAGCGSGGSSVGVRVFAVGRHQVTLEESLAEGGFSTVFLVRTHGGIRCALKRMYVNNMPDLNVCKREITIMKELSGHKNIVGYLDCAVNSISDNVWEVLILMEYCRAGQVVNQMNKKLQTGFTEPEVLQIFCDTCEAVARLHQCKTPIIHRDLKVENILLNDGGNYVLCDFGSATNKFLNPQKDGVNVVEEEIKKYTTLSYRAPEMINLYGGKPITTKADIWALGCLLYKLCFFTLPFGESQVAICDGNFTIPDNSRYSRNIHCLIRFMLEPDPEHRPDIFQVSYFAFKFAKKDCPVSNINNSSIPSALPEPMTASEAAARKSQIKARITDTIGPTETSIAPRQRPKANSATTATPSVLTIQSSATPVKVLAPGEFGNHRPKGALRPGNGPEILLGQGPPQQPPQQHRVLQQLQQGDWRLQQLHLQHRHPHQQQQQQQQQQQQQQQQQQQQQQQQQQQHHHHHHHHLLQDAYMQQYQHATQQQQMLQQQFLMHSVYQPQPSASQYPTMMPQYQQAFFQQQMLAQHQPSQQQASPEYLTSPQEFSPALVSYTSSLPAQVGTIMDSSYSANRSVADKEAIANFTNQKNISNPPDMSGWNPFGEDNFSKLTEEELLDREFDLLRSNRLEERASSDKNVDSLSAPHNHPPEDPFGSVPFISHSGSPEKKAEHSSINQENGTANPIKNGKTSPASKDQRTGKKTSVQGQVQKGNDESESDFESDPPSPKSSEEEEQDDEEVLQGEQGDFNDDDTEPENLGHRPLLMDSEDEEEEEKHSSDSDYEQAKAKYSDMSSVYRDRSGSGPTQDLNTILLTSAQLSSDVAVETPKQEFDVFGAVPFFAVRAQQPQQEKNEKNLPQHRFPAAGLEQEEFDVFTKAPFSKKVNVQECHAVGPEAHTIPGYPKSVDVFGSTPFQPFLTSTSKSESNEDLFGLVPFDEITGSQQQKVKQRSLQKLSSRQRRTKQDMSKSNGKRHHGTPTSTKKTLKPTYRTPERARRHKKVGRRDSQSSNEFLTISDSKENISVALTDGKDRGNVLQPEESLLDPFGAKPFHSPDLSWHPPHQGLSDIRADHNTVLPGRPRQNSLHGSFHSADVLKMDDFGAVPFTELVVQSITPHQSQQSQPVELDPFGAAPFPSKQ
NEK7 (human), sequence (Q8TDX7 whole entry, looked up): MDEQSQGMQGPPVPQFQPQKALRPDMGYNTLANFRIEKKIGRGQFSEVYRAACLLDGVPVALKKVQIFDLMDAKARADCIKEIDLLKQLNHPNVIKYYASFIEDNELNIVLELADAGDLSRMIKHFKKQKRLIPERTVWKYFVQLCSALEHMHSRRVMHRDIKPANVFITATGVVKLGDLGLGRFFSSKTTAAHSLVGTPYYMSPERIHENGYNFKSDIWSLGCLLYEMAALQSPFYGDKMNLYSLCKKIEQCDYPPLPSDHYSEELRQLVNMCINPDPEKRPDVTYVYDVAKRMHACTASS

Cn1cc(C2=C(c3ccc(Cl)cc3Cl)C(=O)NC2=O)c2ccccc21
kinase still bound, per cent of control [1]: 100%
kinase still bound, per cent of control [2]: 58%
kinase still bound, per cent of control [3]: 100%
kinase still bound, per cent of control [4]: 80%
kinase still bound, per cent of control [5]: 97%
kinase still bound, per cent of control [6]: 14%
kinase still bound, per cent of control [7]: 92%
kinase still bound, per cent of control [8]: 87%
kinase still bound, per cent of control [9]: 100%
kinase still bound, per cent of control [10]: 100%
kinase still bound, per cent of control [11]: 93%
kinase still bound, per cent of control [12]: 32%
kinase still bound, per cent of control [13]: 51%
kinase still bound, per cent of control [14]: 100%
kinase still bound, per cent of control [15]: 91%
kinase still bound, per cent of control [16]: 92%
kinase still bound, per cent of control [17]: 86%
kinase still bound, per cent of control [18]: 100%
kinase still bound, per cent of control [19]: 100%
kinase still bound, per cent of control [20]: 86%
kinase still bound, per cent of control [21]: 100%
kinase still bound, per cent of control [22]: 73%
kinase still bound, per cent of control [23]: 100%
kinase still bound, per cent of control [24]: 89%
kinase still bound, per cent of control [25]: 70%
kinase still bound, per cent of control [26]: 61%
kinase still bound, per cent of control [27]: 92%
kinase still bound, per cent of control [28]: 85%
kinase still bound, per cent of control [29]: 84%
kinase still bound, per cent of control [30]: 73%
kinase still bound, per cent of control [31]: 100%
kinase still bound, per cent of control [32]: 24%
kinase still bound, per cent of control [33]: 61%
kinase still bound, per cent of control [34]: 100%
kinase still bound, per cent of control [35]: 100%
kinase still bound, per cent of control [36]: 65%
kinase still bound, per cent of control [37]: 90%
kinase still bound, per cent of control [38]: 100%
kinase still bound, per cent of control [39]: 94%
kinase still bound, per cent of control [40]: 100%
kinase still bound, per cent of control [41]: 96%
kinase still bound, per cent of control [42]: 100%

COc1ccc(CNC(=O)Nc2ncc([N+](=O)[O-])s2)cc1
kinase still bound, per cent of control [1]: 100%
kinase still bound, per cent of control [2]: 100%
kinase still bound, per cent of control [3]: 100%
kinase still bound, per cent of control [4]: 57%
kinase still bound, per cent of control [5]: 75%
kinase still bound, per cent of control [6]: 68%
kinase still bound, per cent of control [7]: 89%
kinase still bound, per cent of control [8]: 40%
kinase still bound, per cent of control [9]: 100%
kinase still bound, per cent of control [10]: 100%
kinase still bound, per cent of control [11]: 86%
kinase still bound, per cent of control [12]: 99%
kinase still bound, per cent of control [13]: 100%
kinase still bound, per cent of control [14]: 81%
kinase still bound, per cent of control [16]: 86%
kinase still bound, per cent of control [17]: 100%
kinase still bound, per cent of control [18]: 96%
kinase still bound, per cent of control [19]: 88%
kinase still bound, per cent of control [20]: 100%
kinase still bound, per cent of control [21]: 63%
kinase still bound, per cent of control [22]: 93%
kinase still bound, per cent of control [23]: 100%
kinase still bound, per cent of control [24]: 100%
kinase still bound, per cent of control [25]: 81%
kinase still bound, per cent of control [26]: 87%
kinase still bound, per cent of control [27]: 100%
kinase still bound, per cent of control [28]: 100%
kinase still bound, per cent of control [29]: 76%
kinase still bound, per cent of control [30]: 100%
kinase still bound, per cent of control [31]: 78%
kinase still bound, per cent of control [32]: 100%
kinase still bound, per cent of control [33]: 97%
kinase still bound, per cent of control [34]: 100%
kinase still bound, per cent of control [35]: 100%
kinase still bound, per cent of control [36]: 86%
kinase still bound, per cent of control [37]: 93%
kinase still bound, per cent of control [38]: 78%
kinase still bound, per cent of control [39]: 87%
kinase still bound, per cent of control [40]: 100%
kinase still bound, per cent of control [41]: 100%
kinase still bound, per cent of control [42]: 100%

Cc1cnc(-c2cnc(NCCNc3ccc(C#N)cn3)nc2-c2ccc(Cl)cc2Cl)[nH]1
kinase still bound, per cent of control [1]: 100%
kinase still bound, per cent of control [2]: 99%
kinase still bound, per cent of control [3]: 90%
kinase still bound, per cent of control [4]: 50%
kinase still bound, per cent of control [5]: 100%
kinase still bound, per cent of control [6]: 89%
kinase still bound, per cent of control [7]: 58%
kinase still bound, per cent of control [8]: 3.8%
kinase still bound, per cent of control [9]: 100%
kinase still bound, per cent of control [10]: 100%
kinase still bound, per cent of control [11]: 100%
kinase still bound, per cent of control [12]: 74%
kinase still bound, per cent of control [13]: 91%
kinase still bound, per cent of control [14]: 100%
kinase still bound, per cent of control [15]: 100%
kinase still bound, per cent of control [16]: 91%
kinase still bound, per cent of control [17]: 87%
kinase still bound, per cent of control [18]: 93%
kinase still bound, per cent of control [19]: 51%
kinase still bound, per cent of control [20]: 100%
kinase still bound, per cent of control [21]: 40%
kinase still bound, per cent of control [22]: 92%
kinase still bound, per cent of control [23]: 100%
kinase still bound, per cent of control [24]: 98%
kinase still bound, per cent of control [25]: 100%
kinase still bound, per cent of control [26]: 94%
kinase still bound, per cent of control [27]: 100%
kinase still bound, per cent of control [28]: 100%
kinase still bound, per cent of control [29]: 89%
kinase still bound, per cent of control [30]: 100%
kinase still bound, per cent of control [32]: 100%
kinase still bound, per cent of control [33]: 100%
kinase still bound, per cent of control [34]: 100%
kinase still bound, per cent of control [35]: 100%
kinase still bound, per cent of control [36]: 100%
kinase still bound, per cent of control [37]: 100%
kinase still bound, per cent of control [38]: 100%
kinase still bound, per cent of control [39]: 100%
kinase still bound, per cent of control [40]: 99%
kinase still bound, per cent of control [41]: 94%
kinase still bound, per cent of control [42]: 100%
